Laboratory results published in patent US10329243B2, “Biphenyl derivative and uses thereof” (XI'AN LIBANG PHARMACEUTICAL CO., LTD, priority 2015, dated 2019).

What was measured:
Type in all cases: in vivo, SD rats
brain cell apoptosis [1] = test: Apoptosis determination (TUNEL method), permanent cerebral ischemia model
Method: (§1) Rats were intraperitoneally injected with 10% chloral hydrate 350 mg/kg after anesthesia and opened up at the center of the neck in accordance with the Zea Longa modified method. The right common carotid artery was separated, and the right external carotid artery branches was ligated. A small opening was made at the distal end of the external carotid artery, and a previously prepared thread was inserted through the common carotid artery and the external carotid artery bifurcation into the internal carotid artery, till the anterior end of the middle cerebral artery, with an immersed depth of 18 to 19 mm. The thread was then secured, and the wound was sutured layer by layer. After the operation, the rats were placed in a clean incubator to wake up. […] The sham operation group, the permanent cerebral ischemia model group, and the Example groups were prepared strictly according to the requirements of the cerebral ischemic reperfusion model, while in the sham operation group the thread was put only into the external carotid artery. The animals were allowed to eat and drink freely after waking up. The sham operation group, the permanent cerebral ischemia model group, and the Example groups were administered intravenously the aqueous solution of the biphenyl derivatives in PEG400 at 40 mg/kg (40 mg/kg means that 40 mg of the test compound per kg of the body weight of rats) 30 min before insertion of thread and 12 h after embolism, respectively. The sham operation group and the permanent cerebral ischemia model group were injected with the same amount of blank PEG400 aqueous solution at the same time point.
(§2) 24 hours after the embolism, 8 rats in each group were sacrificed by decapitation, the brain was removed, rinsed with PBS (pH 7.4) at −20°i for 20 min, evenly sliced (with a thickness of 2 mm), stained in a 2% TTC solution at 37°% in the dark for 30 min, fixed in 10% formalin for 24 h, and photographs were taken to analyze the infarct volume. A mixture of femoral arterial and venous blood was drawn from another 8 rats in each group under anesthesia, placed in a low temperature centrifuge at 4° C., centrifuged at 3500 r/min for 20 min, and the supernatant was stored in a refrigerator at −20° C. ready for SOD and MDA detection. After the blood was drawn, a perfusion needle was insert through the apex to the ascending aorta, and saline at 4° C. was rapid infused until the effluent became clear, followed by 4% paraformaldehyde phosphate buffer perfusion for fixation; the brain was removed by craniotomy, and brain tissues 2 mm in front of and behind the optic chiasma were taken and fixed, dehydrated, rendered transparent, impregnated in wax, and embedded. Brain continuous coronary tissue pathological sections were consecutively cut for later use. The remaining 8 rats in each group were sacrificed, brains were removed, the ischemic brain hemispheres were immediately taken on an ice tray, and 10% brain tissue homogenate was prepared for the detection of IL-1β and TNF-α.
(§3) The TUNEL method was used for determination. Brain tissue paraffin sections were dewaxed into water, washed with 3% H2O2 to eliminate endogenous peroxidase activity, and rinsed with distilled water for 2 min, repeated 3 times. A labelling solution was added for labelling at 37°t for 2 h, and a blocking solution was added for blocking at room temperature for 30 min. A biotinylated anti-digoxin antibody was added for a reaction at 37°a for 30 min, and SABC was added for a reaction at 37°a for 30 min. The sections were continuously rinsed with TBS for 5 min repeatedly for 4 times, stained with DAB, sufficiently washed, mild counterstained with Hematoxylin, gradient dehydrated with alcohol, made transparent with toluene, sealed and fixed. Five non-overlapping fields in semi-dark band were randomly selected from each section and inputted into the image analysis system. The number of apoptotic cells was counted, and the average was designated the number of apoptotic cells.

brain cell apoptosis [2] = test: Apoptosis determination (TUNEL method), cerebral ischemic reperfusion MCAO model
Method: as §1, with “group, the ischemic reperfusion group, and” for “group, the permanent cerebral ischemia model group, and”, “waking up. After 2 h, the thread was pulled out to achieve reperfusion. The sham” for “waking up. The sham”, “min before reperfusion and 12” for “min before insertion of thread and 12”, “h after reperfusion, respectively. The” for “h after embolism, respectively. The”, “and the ischemic reperfusion group were” for “and the permanent cerebral ischemia model group were”
as §2, with “reperfusion,” for “the embolism,”, “−20° i” for “−20°i”
as §3, with “system.” for “system. The number of apoptotic cells was counted, and the average was designated the number of apoptotic cells.”

MDA = MDA determination, cerebral ischemic reperfusion MCAO model
Method: as §1, with “group, the ischemic reperfusion group, and” for “group, the permanent cerebral ischemia model group, and”, “waking up. After 2 h, the thread was pulled out to achieve reperfusion. The sham” for “waking up. The sham”, “min before reperfusion and 12” for “min before insertion of thread and 12”, “h after reperfusion, respectively. The” for “h after embolism, respectively. The”, “and the ischemic reperfusion group were” for “and the permanent cerebral ischemia model group were”
as §2, with “reperfusion,” for “the embolism,”, “−20° i” for “−20°i”
SOD and MDA were determined strictly in accordance with instructions of the kit.

[3] = ischemic reperfusion rat model, edaravone 3 mg/kg
[4] = permanent cerebral ischemia model rats, 40 mg/kg intravenously, brain sections 24 h after the embolism, TUNEL, average of five fields
[5] = ischemic reperfusion MCAO rats, 40 mg/kg intravenously, brain sections 24 h after reperfusion, TUNEL, average of five fields
[6] = ischemic reperfusion MCAO rats, 40 mg/kg intravenously 30 min before and 12 h after reperfusion, serum, 24 h after reperfusion

Compound	Number of apoptotic cells (brain cell apoptosis [1]; [4])	Number of apoptotic cells (brain cell apoptosis [2]; [5])	MDA CONTENT (MDA; [6])	other results
3,3′,5,5′-tetraisopropylbiphenyl-4,4′-bis(oxymethylene phosphate) [Example 3 group]	–	–	–	Number of apoptotic cells (brain cell apoptosis [1]; rat, in vivo, iv, 40 mg/kg): 29.72 ± 3.43; Number of apoptotic cells (brain cell apoptosis [2]; rat, in vivo, iv, 40 mg/kg): 25.14 ± 2.54; MDA CONTENT (MDA; rat, in vivo, iv, 40 mg/kg): 5.36 ± 0.47 mmol/mL
CC1=NN(c2ccccc2)C(=O)C1 [Edaravone injection, edaravone, reference compound]	–	–	–	Number of apoptotic cells (brain cell apoptosis [1]; permanent cerebral ischemia model rats, edaravone 3 mg/kg): 33.19 ± 3.81; Number of apoptotic cells (brain cell apoptosis [2]; [3]): 28.6 ± 4.90; MDA CONTENT (MDA; [3]): 6.17 ± 0.54 mmol/mL
CC(=O)Oc1c(C(C)C)cc(-c2cc(C(C)C)c(O)c(C(C)C)c2)cc1C(C)C [Example 1 group, 4′-hydroxy-3,3′,5,5′-tetraisopropylbiphenyl-4-acetate]	–	–	–	MDA CONTENT (MDA; ischemic reperfusion MCAO rats, 40 mg/kg intravenously 30 min before and 12 h after reperfusion, serum, 24 h after reperfusion, 40 mg/kg): 4.74 ± 0.67 mmol/mL
CC(=O)Oc1c(C(C)C)cc(-c2cc(C(C)C)c(OC(C)=O)c(C(C)C)c2)cc1C(C)C [Example 2 group, 3,3′,5,5′-tetraisopropylbiphenyl-4′-diacetate]	23.27 ± 3.78	24.65 ± 3.41	5.44 ± 0.49 mmol/mL	–
CC(C)c1cc(-c2cc(C(C)C)c(OC(=O)CCC(=O)O)c(C(C)C)c2)cc(C(C)C)c1O [Example 5 group, [4-(4′-hydroxy-3,3′,5,5′-tetraisopropylbiphenyl)oxy]-4-carbonyl butyric acid]	23.48 ± 3.62	20.56 ± 4.29	4.47 ± 0.34 mmol/mL	–
CCCc1cc(-c2cc(CCC)c(O)c(C(C)C)c2)cc(C(C)C)c1O [Example 6 group, 4,4′-dihydroxy-3,3′-diisopropyl-5,5′-dipropylbiphenyl]	21.24 ± 5.30	19.47 ± 5.02	4.26 ± 0.41 mmol/mL	–
CCCc1cc(-c2cc(CCC)c(O)c(CCC)c2)cc(CCC)c1O [Example 7 group, 4,4′-dihydroxy-3,3′,5,5′-tetrapropylbiphenyl]	20.32 ± 4.19	20.28 ± 3.76	4.97 ± 0.50 mmol/mL	–
CC(C)c1cc(-c2cc(C(C)C)c(C(=O)O)c(C(C)C)c2)cc(C(C)C)c1O [Example 8 group, 4′-hydroxy-3,3′,5,5′-tetraisopropylbiphenyl-4-carboxylic acid]	27.74 ± 4.20	24.81 ± 3.35	5.12 ± 0.47 mmol/mL	–
CC(C)c1cc(-c2cc(C(C)C)c(Cl)c(C(C)C)c2)cc(C(C)C)c1O [Example 9 group, 4-chloro-4′-hydroxy-3,3′,5,5′-tetraisopropylbiphenyl]	–	–	–	Number of apoptotic cells (brain cell apoptosis [1]; rat, in vivo, iv, 40 mg/kg): 31.44 ± 5.19; Number of apoptotic cells (brain cell apoptosis [2]; rat, in vivo, iv, 40 mg/kg): 25.47 ± 4.19; MDA CONTENT (MDA; rat, in vivo, iv, 40 mg/kg): 5.61 ± 0.71 mmol/mL
CC(C)c1cc(-c2cc(C(C)C)c(OC=O)c(C(C)C)c2)cc(C(C)C)c1O [Example 10 group]	23.67 ± 5.13	22.18 ± 5.22	–	–
CC(C)c1cc(-c2cc(C(C)C)c(OC(=O)C(N)C(C)C)c(C(C)C)c2)cc(C(C)C)c1O (stereo not drawn) [Example 11 group, 4′-hydroxy-3,3′,5,5′-tetraisopropylbiphenyl-2-amino-3-methylbutyrate]	26.31 ± 3.86	24.19 ± 4.29	4.92 ± 0.52 mmol/mL	–
CC(=O)OC(C)Oc1c(C(C)C)cc(-c2cc(C(C)C)c(O)c(C(C)C)c2)cc1C(C)C (stereo not drawn) [Example 12 group, Ethyl 1-(4′-hydroxy-3,3′,5,5′-tetraisopropylbiphenyl-4-oxo)acetate]	32.45 ± 4.21	26.27 ± 5.37	5.37 ± 0.55 mmol/mL	–
